In article PMC9696794, “Synthesis and Antimicrobial Activity of Short Analogues of the Marine Antimicrobial Peptide Turgencin A: Effects of SAR Optimizations, Cys-Cys Cyclization and Lipopeptide Modifications” (International Journal of Molecular Sciences, 2022):
≈ marks a conversion by molar mass, not a printed value. Where a SMILES comes first, the peptide text is derived from it. Bridges are numbered along the chain shown (N, C = ends).

How the values were obtained:
[1] = test system: B. subtilis (Bs, ATCC 23857); test: microbe, parasite or virus in culture; format: cell-based, Bacillus subtilis; details: ATCC 23857, 24 h
Procedure, shortened: (§1)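 Cultures grown in Mueller–Hinton broth were adjusted by OD600 to 2.5–3 × 10^4 CFU/mL and mixed with two-fold peptide dilutions from 256 to 1 µg/mL. Plates were incubated at 35 °C with OD595 monitored every hour for 24 h.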

[2] = test system: C. glutamicum (Cg, ATCC 13032); test: microbe, parasite or virus in culture; format: cell-based, Corynebacterium glutamicum; details: ATCC 13032, 24 h
Procedure, shortened: as §1

[3] = test system: S. aureus (Sa, ATCC 9144); test: microbe, parasite or virus in culture; format: cell-based, Staphylococcus aureus; details: ATCC 9144, 24 h
Procedure, shortened: as §1

[4] = test system: S. epidermidis RP62A (Se, ATCC 35984); test: microbe, parasite or virus in culture; format: cell-based, Staphylococcus epidermidis; details: ATCC 35984, 24 h
Procedure, shortened: as §1

E. coli (Ec, ATCC 25922) = test: microbe, parasite or virus in culture; format: cell-based, Escherichia coli; details: ATCC 25922, 24 h
Procedure, shortened: as §1

[5] = test system: P. aeruginosa (Pa, ATCC 27853); test: microbe, parasite or virus in culture; format: cell-based, Pseudomonas aeruginosa; details: ATCC 27853, 24 h
Procedure, shortened: as §1

all bacterial strains = test: Antibacterial MIC assay, all bacterial strains together (range or geometric mean); format: cell-based; details: for GM (geometric mean of the MIC values against all bacterial strains): Table 1, six bacterial strains; for GM of MIC Tot. bact.: Table S3, all bacterial test strains, MIC >256 set to 256
Procedure, shortened: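 Broth microdilution in Mueller–Hinton broth against B. subtilis, C. glutamicum, S. aureus, S. epidermidis RP62A, E. coli and P. aeruginosa; inoculum 2.5–3 × 10^4 CFU/mL, 35 °C, OD595 read hourly for 24 h. MIC: lowest peptide concentration giving OD below 10% of growth control; geometric mean across strains, triplicate.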

A. pullulans (Ap) = test: microbe, parasite or virus in culture; format: cell-based, Aurobasidium pollulans; details: 48 h
Procedure, shortened: (§2)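 Overnight cultures in potato dextrose broth with 2% glucose at 25–30 °C were diluted to approx. 4 × 10^5 spores/mL and mixed 1:1 with two-fold peptide dilutions plated at 256 to 1 µg/mL. After 48 h at room temperature, OD600 was read. MIC was the lowest concentration giving OD below 10% of the growth control, in triplicate.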

[6] = test system: C. albicans (Ca, ATCC 10231); test: microbe, parasite or virus in culture; format: cell-based, Candida albicans; details: ATCC 10231, 48 h
Procedure, shortened: as §2

Rhodotorula sp. (Rh) = test: microbe, parasite or virus in culture; format: cell-based; details: 48 h
Procedure, shortened: as §2

[7] = test system: human red blood cells (RBC); test: Haemolytic activity assay; format: cell-based; details: for Selectivity index (SI) G- / Selectivity index (SI) G+ / Selectivity index (SI) Fungi: Table S3, highest tested concentration used where EC50 above it; for Selectivity index (SI) G-: EC50/GM of Gram-negative strains; for Selectivity index (SI) G+: EC50/GM of Gram-positive strains; for Selectivity index (SI) Fungi: EC50/GM of fungi; for RBC Tox. (EC50), haemolytic activity: human RBC, 1 h, 37 °C, concentration giving 50% haemolysis
Procedure, shortened: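 Washed human erythrocytes (1% hematocrit final) incubated 1 h at 37 °C with agitation with lipopeptides at 500–3.9 μM in PBS (≤1% DMSO), duplicates. Haemoglobin release read at 545 nm relative to 0.1% Triton X-100; EC50 is 50% haemolysis, averaged from three experiments.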

[8] = test system: E. coli MC4100 (wild type, WT); test: microbe, parasite or virus in culture; details: wild type
Procedure, shortened: (§3)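 Broth microdilution in Mueller–Hinton medium, 2.5–3 × 10^4 CFU/mL inoculum, two-fold peptide dilutions from 256 to 1 µg/mL, 35 °C with OD595 read hourly for 24 h. MIC is the lowest concentration giving OD below 10% of the untreated growth control; run in triplicate.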

[9] = test system: E. coli NR698 (outer membrane permeable mutant, imp4213); test: microbe, parasite or virus in culture; details: MC4100 NR698 imp4213, deficient outer membrane
Procedure, shortened: as §3

[10] = test system: Gram-positive bacterial strains; details: for GM of MIC G+: Table S3, MIC >256 set to 256
Procedure, shortened: as §1

[11] = test system: Gram-negative bacterial strains (E. coli and P. aeruginosa); test: Antibacterial MIC assay, Gram-negative strains together (range or geometric mean); format: cell-based; details: Table S3; MIC >256 set to 256
Procedure, shortened: as §1

[12] = test system: fungi (A. pullulans, C. albicans, Rhodotorula sp.); test: Antifungal MIC assay, all fungi together (range or geometric mean); format: cell-based; details: Table S3; MIC >128 set to 128
Procedure, shortened: as §2

Structure (SMILES) | Antimicrobial Activity (MIC) Gram + Bs [1] [µg/mL] | Antimicrobial Activity (MIC) Gram + Cg [2] [µg/mL] | Antimicrobial Activity (MIC) Gram + Sa [3] [µg/mL] | Antimicrobial Activity (MIC) Gram + Se [4] [µg/mL] | Antimicrobial Activity (MIC) Gram − Ec (E. coli (Ec, ATCC 25922)) [µg/mL] | Antimicrobial Activity (MIC) Gram − Pa [5] [µg/mL] | GM (geometric mean of the MIC values against all bacterial strains) (all bacterial strains) [µg/mL] | GM of MIC Tot. bact. (all bacterial strains) [µg/mL] | Antimicrobial Activity (MIC) Fungi Ap (A. pullulans (Ap)) [µg/mL] | Antimicrobial Activity (MIC) Fungi Ca [6] [µg/mL] | Antimicrobial Activity (MIC) Fungi Rh (Rhodotorula sp. (Rh)) [µg/mL] | Selectivity index (SI) G- [7] | Selectivity index (SI) G+ [7] | Selectivity index (SI) Fungi [7] | RBC Tox. (EC50), haemolytic activity [7] [µg/mL] | MIC E. coli MC4100 (WT) [8] [µg/mL] | MIC E. coli NR698 (mutant) [9] [µg/mL] | GM of MIC G+ [10] [µg/mL] | GM of MIC G- [11] [µg/mL] | GM of MIC Fungi [12] [µg/mL] | other results
CC(C)C[C@H](NC(=O)[C@H](CCCNC(=N)N)NC(=O)[C@@H]1CSSC[C@H](N)C(=O)NCC(=O)N[C@@H](CCCNC(=N)N)C(=O)N[C@@H](CCCNC(=N)N)C(=O)N[C@@H](Cc2c[nH]c3ccccc23)C(=O)NCC(=O)N[C@@H](Cc2c[nH]c3ccccc23)C(=O)N[C@@H](Cc2c[nH]c3ccccc23)C(=O)N[C@@H](CCCNC(=N)N)C(=O)N1)C(N)=O [cTurg-6] (H-CGRRWGWWRCRL-NH2; disulfide 1-10; N-terminus assumed) | 4 | 4 | 16 | 8 | 8 | 16 | 8 | 8 | 32 | 32 | 32 | > 97 | > 164 | > 34 | > 1045 | 8 (≈ 4.9 µM) | 8 (≈ 4.9 µM) | 7 | 11 | 32 | MIC against the Gram-positive bacterial strains ([10]; 2 h): 4 to 16 µg/mL
CC(C)C[C@H](NC(=O)[C@H](CCCNC(=N)N)NC(=O)[C@@H]1CSSC[C@H](N)C(=O)NCC(=O)N[C@@H](CCCNC(=N)N)C(=O)N[C@@H](CCCNC(=N)N)C(=O)N2CCC[C@H]2C(=O)N[C@@H](Cc2c[nH]c3ccccc23)C(=O)N[C@@H](Cc2c[nH]c3ccccc23)C(=O)N[C@@H](Cc2c[nH]c3ccccc23)C(=O)N[C@@H](CCCNC(=N)N)C(=O)N1)C(N)=O [cTurg-7] (H-CGRRPWWWRCRL-NH2; disulfide 1-10; N-terminus assumed) | 4 | 4 | 16 | 8 | 16 | 32 | 10 | 10 | 32 | 32 | 32 | 9 | 29 | 6 | 197 | 8 (≈ 4.78 µM) | 8 (≈ 4.78 µM) | 7 | 23 | 32 | SI (selectivity index = EC50/GM) ([7]; haemolytic EC50 over GM of MIC against all bacterial strains, Table 1): 20
